According to the METLIN SMRT retention time set (Domingo-Almenara et al. 2019):

Test: gradient 5% acetonitrile 3 min, to 50% in 2 min, to 85% in 15 min, held 3 min, 100 µL/min
Conditions: column: Zorbax Extend-C18 2.1 x 50 mm; eluents: water / acetonitrile, 0.1% formic acid
Outline: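 Retention times of pure standards were taken from adduct peaks that were selected by computer and manually inspected. Over 3 months, mixtures of ~100 molecules were run by HPLC–quadrupole time-of-flight mass spectrometry in positive and negative ionization mode. The Zorbax Extend-C18 column (2.1 × 50 mm, 1.8 μm) ran at 100 μL/min in water and acetonitrile, each containing 0.1% formic acid, with 40 μL dead volume and 900 μL dwell volume.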

SMILES	RP-LC retention time
CCOc1ccc(-c2[nH]ncc2CNS(=O)(=O)c2ccc(C(F)(F)F)cc2)cc1	918 s
CCCNc1cc(N2CCCC(CCC(=O)Nc3ccc(OC)c(OC)c3)C2)ncn1 (stereo not drawn)	667 s
O=C(Cc1ccsc1)N1CCCn2nc(-c3ccc(Cl)cc3)cc2C1	931 s
CN(C(=O)Cn1ccn2nc(-c3ccccc3)c(CO)c2c1=O)c1ccccc1	774 s
Cc1cccc(CN2N=C(C(=O)N3CCOCC3)S(=O)(=O)c3ccccc32)c1	832 s
CCn1cnc2ccc(-c3noc(Cc4ccc(F)cc4)n3)cc21	742 s
Cc1cccc(C)c1NC(=O)Cn1cnc2nc3c(cc2c1=O)CC(C)CC3 (stereo not drawn)	758 s
CNC(=O)c1sc(-c2ccc(C)cc2)nc1C	785 s
Cc1cccc(NC(=O)C2CC(=O)N(c3ccc4c(c3)CCN4C(=O)C3CC3)C2)c1C (stereo not drawn)	763 s
O=C(Nc1cccc(Br)c1)N1CCc2nc(-c3ccc(Cl)cc3)ncc2C1	1190 s
COc1ccc(CNC(=O)Nc2c(-c3cccc(C)c3)nc3ccccn23)cc1	651 s
CCn1cc(CCNC(=O)c2ccc(Br)cc2)c2cccnc21	766 s
O=C(Cc1ccsc1)N1CCC2(CC1)N=C(c1ccccc1)NO2	774 s
COc1nn(C)cc1-c1nnc(SCC(=O)NCc2ccc(F)cc2)n1C	594 s
O=C(Nc1ccc2c(c1)CCC2)C1CCc2nc(N3CCOCC3)ncc2C1 (stereo not drawn)	793 s
CC(C)(C)NC(=O)c1ccc(C(=O)NC(C)(C)C)cc1	840 s
CC(C(=O)N1CCC(N2CCCCC2)CC1)C1CCN(S(=O)(=O)c2cccs2)CC1 (stereo not drawn)	627 s
CCN1c2ccc(C)cc2C(=O)NC12CCN(C(=O)c1ccc(C)cc1C)CC2	902 s
CC(C)CCNC(=O)NCCn1c(-c2ccc(F)cc2)nc2ccccc21	650 s
Cc1oc(-c2[nH]ncc2C(=O)N2CCCC2)cc1S(=O)(=O)N1CCOCC1	619 s
Cc1noc(-c2nc(-c3ccccc3F)no2)n1	990 s
COc1ccc(C2(CNC(=O)c3cc(-c4ccccc4)n[nH]3)CCOCC2)cc1	749 s

SMILES	RP-LC retention time
Cc1ccnc(N2CCCC(C(=O)NCc3ccc4c(c3)OCO4)C2)n1 (stereo not drawn)	692 s
O=C(C1CCCCN1S(=O)(=O)c1ccc(F)cc1)N1CCc2ccccc21 (stereo not drawn)	1090 s
COc1ccccc1NC(=O)C1CCN(S(=O)(=O)c2c(C)nn(-c3ccccc3)c2C)CC1	981 s
CC(C)Cn1c(=O)c(C(=O)NCCc2cccnc2)nc2cccnc21	635 s
COc1cc(Br)c(C2C(C(=O)N3CCOCC3)=C(C)NC3=C2C(=O)CCC3)cc1OC (stereo not drawn)	618 s
COc1ccc(N2CCN(C(=O)C3CC(=O)N(c4ccc5oc(C)nc5c4)C3)CC2)cc1 (stereo not drawn)	678 s
Cc1ccc(NC(=O)N2CCCN(c3ccc(=O)n(-c4ccccc4)n3)CC2)cc1	820 s
CCOC(=O)c1cc(C2CC2)nc2c1c(=O)n(CCc1c(C)noc1C)c(=O)n2C	980 s
CCN1CCN(c2cc(C(=O)O)c3cc(NS(=O)(=O)c4cccc(C)c4)ccc3n2)CC1	596 s
Cc1ccc(CNC(=O)C2(C)CCCN(C(=O)NCCC(C)C)C2)cc1 (stereo not drawn)	910 s
COCCn1c(=O)c2c(nc3n2CCCN3c2ccccc2)n(C)c1=O	738 s
CC(CCc1ccccc1)NC(=O)Cc1nnc(-c2ccccn2)o1 (stereo not drawn)	744 s
CCSc1nnc(-c2nn(C)c3c2CN(C(=O)c2cc(C)ccc2C)CC3)n1C	811 s
O=C(NCc1cc(F)ccc1F)C1CCN(C(=O)c2ncn3c2COC(c2ccccc2)C3)CC1 (stereo not drawn)	766 s
O=C(O)c1nnn(-c2ccc3c(c2)CCC3)c1-c1ccccn1	750 s
Cn1nc(-c2nc(C3CC3)no2)c2c1CCN(C(=O)c1ccccc1F)C2	805 s
CCOc1ccc(NC(=O)COc2cc(C)nc(N3CCCC3)n2)cc1	649 s
CCN1CCC2(CC1)N=C(c1ccc(Cl)cc1)CC(c1cccc(OC)c1O)N2 (stereo not drawn)	621 s
COC(=O)[C@H](CC1C=NC=N1)NCC12CC3CC(CC(C3)C1)C2 (stereo partly drawn)	607 s
Cc1nn2c(CNS(=O)(=O)c3cccc(Cl)c3)c(-c3ccccc3)nc2s1	916 s
CC(C)n1c(=O)oc2cc(-c3noc(-c4ccc(C(F)(F)F)cc4)n3)ccc21	1310 s
CCCc1ccc(S(=O)(=O)N2CCC3(CC2)NCCN=C3NCc2ccccc2)cc1	809 s

SMILES	RP-LC retention time
CCn1cc(-c2ccc(OC)cc2)cc1C(=O)O	825 s
Cc1ccc(NC(=O)N2CCC3(C2)c2nc[nH]c2CCN3C)cc1 (stereo not drawn)	554 s
CCCCN(C)C(=O)C1CCCN(c2ccc(-c3ccc(C)cc3)nn2)C1 (stereo not drawn)	750 s
COc1cccc(-c2nnc(Cc3nc(-c4ccc(Cl)cc4)no3)o2)c1	1100 s
CS(=O)(=O)c1ccc(Nc2nc(C(=O)NCC3CCCO3)cs2)cc1 (stereo not drawn)	636 s
COc1ccccc1-c1cc(C(=O)N2CCN(c3cc(=O)n(C(C)C)c(=O)n3C(C)C)CC2)[nH]n1	861 s
O=C(c1ccccc1Br)N1CCCN(C(=O)C2CC2)c2ccccc21	746 s
O=C(NCCc1csc(-c2ccccc2)n1)[C@H]1CCCN1C(=O)c1ccco1	747 s
CCOc1ccc(N2C(=O)C3N=NN(Cc4nc(-c5ccc(Br)cc5)no4)C3C2=O)cc1 (stereo not drawn)	1050 s
N#CCCN(C(=O)c1noc2c1CCCC2)c1ccccc1	827 s
CN(C)c1ccc(C(=O)N2CCC(COc3ccc(C(=O)N4CCCCC4)cc3)CC2)cc1	929 s
O=C(NC1CC(=O)N(C2CC2)C1)c1ccc(Cl)s1 (stereo not drawn)	639 s
CS(=O)(=O)N1CCC(OC2CCN(C(=O)Nc3ccc(Cl)cc3F)CC2)CC1	783 s
CC(C)n1cc(S(=O)(=O)Nc2cccc(Cl)c2)c2cccnc21	946 s
Cc1ccccc1NC(=O)NCC1CCOCC1	658 s
CC(C)(C)c1ccc(C(=O)Nc2cc(-c3ccccn3)no2)cc1	1020 s
Cc1noc(-c2ccc(-n3ncc(C(=O)NCCc4c[nH]c5ccccc45)c3C)nc2)n1	898 s
O=C(Cn1ncn2c(cc3cc(F)ccc32)c1=O)N1CCN(c2ccccn2)CC1	605 s
O=C(COc1ccc(Cl)cc1)Nc1nc(-c2ccccc2)cs1	1100 s
COC(=O)C1C(c2ccccc2)=NN(c2ccccc2)C1C(=O)OC (stereo not drawn)	1090 s
COc1ccc(-c2cc(=O)n3c4ccccc4n(CC(=O)Nc4ccc(F)cc4)c3n2)cc1	1010 s
Cc1nn(-c2nc(-c3ccc(Cl)cc3)cs2)c(C)c1CC(=O)N1CCN(c2ccccc2)CC1	1290 s

SMILES	RP-LC retention time
Cc1nn(CCCC(=O)NCc2ccco2)c(=O)c2nn(-c3ccccc3)c(C)c12	736 s
CCC(=O)N1CCc2c(C(=O)NCCN3CCc4ccccc4C3)cccc21	614 s
Cc1ccc(C2Cn3cnc(C(=O)N4CCC(C(=O)NCC5CCCCC5)CC4)c3CO2)cc1 (stereo not drawn)	885 s
Cc1ccccc1Nc1c(-c2ccc(N(C)C)cc2)nc2c(C)cccn12	798 s
CCc1ccc(-n2ncc3c(=O)n(Cc4nc(-c5ccc(OC)cc5)no4)cnc32)cc1	1120 s
CN(C)C(=O)c1csc(S(=O)(=O)N2CCC(C(=O)NCc3ccc4c(c3)OCO4)CC2)c1	714 s
CCC(=O)Nc1ccc2c(c1)Sc1ncccc1C(=O)N2C(C)C	704 s
O=C1NC2(CCN(C(=O)NCCc3ccccc3)CC2)Nc2c(Cl)cccc21	773 s
COc1cc(-c2nc(Cn3ccn4nc(-c5ccc(F)cc5)cc4c3=O)c(C)o2)cc(OC)c1OC	996 s
CCCCS(=O)(=O)c1cc2c(cc1NC(=O)c1ccccc1C)n(C)c(=O)n2C	853 s
CCn1c(=O)n(CC)c2cc(S(=O)(=O)C3CCCCC3)c(NC(C)=O)cc21	791 s
Cc1sc2ccn(Cc3ccc(F)cc3)c(=O)c2c1C(=O)NCCN1CCN(C)CC1	591 s
O=C1[C@H]2CCCC[C@H]2C(=O)N1CCCCN1CCN(c2nsc3ccccc23)CC1	775 s
O=C(C1CCC1)N1CCCCCC1CN1CCOCC1 (stereo not drawn)	595 s
CCN(Cc1ccccc1)C(=O)Cn1cccc1-c1nnc(-c2ccccc2)o1	1050 s
Cc1ccc(-c2ncc(C(=O)Nc3ccc4c(c3)OCCO4)c(-c3ccncc3)n2)cc1	880 s
O=C(NCCC1=CCCCC1)C1CCN(C(=O)c2cccn2-c2cccnc2)CC1	1090 s
COc1ccc(CN2C(=O)[C@H](OC)[C@@H]2C2=CCNCC2)cc1	576 s
O=C(C1=CN(c2ccc3c(c2)OCCO3)c2ccccc2S1(=O)=O)N1CCOCC1	730 s
O=C(Cn1cccc1-c1nc(-c2ccc(Cl)cc2)cs1)NCc1ccco1	1080 s
Cc1ccc(C(=O)NC2CCN(c3nnc4ccccn34)CC2)cc1N1CCCC1=O	596 s
Cc1cccc(-c2noc(-c3nnn4c3COC(c3ccc(F)cc3)C4)n2)c1 (stereo not drawn)	1210 s
